Experiments:
J774 A.1 cells [1] = experiment: FACS competition assay: FITC-rBAG3 binding to J774 A.1 cells with BAG3 peptides or F(ab′)2 fragments; assay type: cell-based, murine; settings: 14 nM FITC-BAG3, 625 nM of BAG3 peptides
Description: (§1) We addressed the functional significance of BAG3 release by cardiomyocytes. […] Therefore we investigated whether BAG3 could interact with blood cells. […] BAG3 binding to macrophages was specifically impaired by competing BAG3 peptides or by BAG3-sequestering F(ab′)2 fragments from anti-BAG3 monoclonal antibodies (Table I). In particular J774 cells were incubated with 14 nM FITC-BAG3 protein and with 625 nM of BAG3 peptides (peptide 1, peptide 2, peptide 3, peptide 4 or scrambled peptide) or with 420 nM of F(ab′)2 fragments from anti-BAG3 monoclonal and polyclonal antibodies (mouse monoclonal AC1, AC2 and rabbit polyclonal TOS2). F(ab′)2 fragments from mouse IgG or F(ab′)2 fragments from rabbit IgG were used as a negative control.
Competition—J774 A.1 cells (2.5×105/100 μl) were incubated with 625 nM of BAG3 peptides (peptide 1, peptide 2, peptide 3, peptide 4 or scrambled peptide) or with 420 nM of F(ab′)2 fragments from anti-BAG3 monoclonal and polyclonal antibodies (mouse monoclonal AC1, AC2 and rabbit polyclonal TOS2) or F(ab′)2 fragments from mouse IgG or F(ab′)2 fragments from rabbit IgG in PBS containing 2% FBS+0.1% NaN3 for 30 min on ice. After incubation the cells were washing with PBS and then were incubated with of FITC-rBAG3 protein (14 nM), in PBS containing 2% FBS+0.1% NaN3 for 30 min at 4° C. in the dark. After washing with PBS, the cells were resuspended in PBS+2% FBS+0.1% NaN3 and analyzed by flow cytometer (BD Biosciences).

J774 A.1 cells [2] = experiment: FACS analysis of FITC-rBAG3 binding to J774 A.1 macrophages; assay type: cell-based, murine
Description: FIG. 3B: BAG3 binds macrophages. J774 A1 macrophages (1×10^6 cells/ml) were incubated with different concentration of Fitc-BAG3 protein (7, 14 and 70 nm). FITC-BSA (70 nM) was used as a negative control (grey). Cells fluorescence was analyzed by flow cytometry.
as §1
rBAG3 binding—J774 A.1 cells were blocked with 2% FBS+0.1% NaN3 in PBS for 15 min on ice and incubated (2.5×105/100 μl) with different concentration of FITC-rBAG3 protein (7, 14 and 70 nm) or FITC-BSA (70 nM) in PBS containing 2% FBS+0.1% NaN3 for 30 min at 4° C. in the dark. After washing with PBS, the cells were resuspended in PBS+2% FBS+0.1% NaN3 and analyzed with a FACScan (BD Biosciences) flow cytometer.

HCMa cells = experiment: Confocal direct fluorescence, rBAG3-FITC binding to cardiomyocytes; assay type: cell-based, human; settings: FIG. 3A, result in words
Source text: FIG. 3A: Confocal microscopy analysis of direct fluorescence performed for detection of rBAG3-FITC binding to HCMa cells (a, b, c) and J774 A1 cells (d, e, f, g, h, i). BAG3 recombinant protein and purified BSA (albumin from bovine serum purchased from SIGMA) were conjugated to FITC using the FluoroTag FITC Conjugation Kit purchased from SIGMA following the manufacturer instructions. Equal amount of rBAG3-FITC (b, e) and BSA-FITC (h) proteins, calculated following the manufacturer instructions, were added in HCM and J774 A1 culture media with 0.1% NaN3 […] (a, d, g). Cells were analyzed by a Zeiss LSM confocal microscope. Merged images are shown in c, f and i.
We addressed the functional significance of BAG3 release by cardiomyocytes. […]
Cells were cultured on coverslips in six-well plates to 60-70% confluence and equal amount of rBAG3-FITC and BSA-FITC proteins were added in HCMa and J774 A1 culture media with 0.1% NaN3 for 1 h. […] Samples were analyzed using a confocal laser scanning microscope (Zeiss LSM confocal microscope, Germany). […] For production of figures, brightness and contrast of images were adjusted by taking care to leave a light cellular fluorescence background for visual appreciation of the lowest fluorescence intensity features and to help comparison among the different experimental groups. […]

J774 A1 macrophages [3] = experiment: Cox-2 and iNOS levels in J774 A1 macrophages incubated with BAG3 (western blot); assay type: cell-based, murine; settings: BAG3-treated macrophages, 20 hours, FIG. 3C panel a
Description: FIG. 3C panel a—Analysis of Cox-2 and iNOS levels in J774 A1 macrophages incubated with BAG3. J774 A1 cells at 80% confluency were incubated with control medium, BSA, LPS or rBAG3, for 20 hours. Polymixin was added where indicated to verify that the effects of E. coli-derived rBAG3 were independent from the presence of contaminating endotoxin. Cox-2 and iNOS expression were analyzed in cell lysates by Western blotting. To explore functional consequences of BAG3 binding to macrophages, we tested the effect of recombinant BAG3 on the expression of inducible nitric oxide synthase (iNOS) and cyclooxygenase (Cox)-2 in the cells. As shown in FIG. 3C panel a the levels of those enzymes were enhanced in BAG3-treated macrophages. […] Soluble proteins were collected after a centrifugation at 10,000 g for 15 min and their amount was determined by Bradford assay (Bio-Rad, Hercules, Calif.). […] Immunoreactivity was detected by sequential incubation with horseradish peroxidase-conjugated secondary antibodies purchased from Pierce (Rockford, Ill.) and ECL detection reagents purchased from Amersham Life Sciences Inc. (Arlington Heights, Ill., USA).

J774 A1 macrophages [4] = experiment: Nitrite release from J774 A1 macrophages (Griess reaction); assay type: cell-based, murine; settings: J774 A1, 24 hours, FIG. 3C panel b
Description: FIG. 3C panel b—Analysis of nitrite release from J774 A1 macrophages incubated with BAG3. J774 A1 cells at 80% confluency were incubated with control medium, BSA, LPS or rBAG3 for 24 hours. 100 μl of supernatants from each sample were incubated with 100 μl of Griess reagent; the optical density at 550 nm (OD550) was measured with a Beckman DU62 spectrophotometer. Nitrite concentration was evaluated by comparing the OD550 of the sample with that of a standard curve of sodium nitrite. Nitrite content (NO2^−), a stable metabolite of NO released by cells in the culture supernatant, was measured in J774 A.1 cells (5×104/in 96-well microplates) treated with LPS (10 ng/ml) or with rBAG3 (7, 14 and 28 nM) or BSA (28 nM) for 24 hours in absence or presence of polymyxin B sulfate (Sigma-Aldrich, St. Louis, Mo., USA) 5 μg/ml. NO2^− amounts were measured by Griess reaction. Briefly, 100 μL of cell culture medium were mixed with 100 μL of Griess reagent—equal volumes of 1% (w:v) sulphanilamide in 5% (v:v) phosphoric acid and 0.1% (w:v) naphtylethylenediamine-HCl—and incubated at room temperature for 10 min, and then the absorbance was measured at 550 nm in a microplate reader Titertek (Dasit, Cornaredo, Milan, Italy). The amount of NO2- (as μM) in the samples was calculated from a sodium nitrite standard curve.

J774 A1 macrophages [5] = experiment: IL-6 release from J774 A1 macrophages (ELISA); assay type: cell-based, murine; settings: J774 A1, FIG. 3C panel c
Description: FIG. 3C panel c—Analysis of IL-6 release from J774 A1 macrophages incubated with BAG3. J774 A1 cells at 80% confluency macrophages were incubated with control medium, BSA, LPS or recombinant BAG3 for 5 hours. BAG3 peptides (peptide 1, peptide 2, peptide 3, peptide 4 or scrambled peptide) 625 nM were added where indicated to verify their ability to block BAG3 activity. IL-6 production was measured in cell culture medium using an ELISA test. IL-6 concentration was evaluated by comparing the OD of the sample with that of a standard curve of recombinant IL-6. IL6 was measured in supernatant of J774 A.1 cells (5×10^4/in 96-well microplates) treated with LPS (10 ng/ml) or with rBAG3 (14 nM) or BSA (14 nM) for 10 or 20 hours in absence or presence of polymyxin B sulfate (5 μg/ml). After treatment 50 μL of cell culture medium were collected and analyzed in triplicate with a mouse IL6 Kit (eBioscience).

Row | Substance | Competiton assays % inhibition (J774 A.1 cells [1]) [%] | Competiton assays % of positive cells (±S.D.) (J774 A.1 cells [1]) | further results
1 | DKGKKNAGNAEDPHT (listed as Homo sapiens) [Pep3, 13] | 47.2 | 5.86 (±0.43) % | 
2 | FITC-rBAG3: BAG3 recombinant protein conjugated to FITC |  |  | binding to macrophages of the cell line J774 (J774 A.1 cells [2]; FIG. 3B, result in words): bound; FITC-rBAG3 % of positive cells (±S.D.) (J774 A.1 cells [2]; J774 cells, flow cytometry): 15.7 (±0.45) %; binding to the cardiomyocyte surface (HCMa cells): did not apparently bind
3 | SSPKSVATEERAAPS (listed as Homo sapiens) [Pep2, 12] | 89.1 | 1.21 (±0.63) % | 
4 | NPSSMTDTPGNPAAP (listed as Homo sapiens) [Pep4, 14] | 93.8 | 0.68 (±0.20) % | 
5 | DRDPLPPGWEIKIDPQ (listed as Homo sapiens) [Pep1, 11] | 98.4 | 0.18 (±0.05) % | 
6 | FITC-BSA: purified albumin from bovine serum conjugated to FITC, negative control |  |  | FITC-BSA % of positive cells (±S.D.) (J774 A.1 cells [2]; J774 cells, flow cytometry, negative control): 4.04 (±0.06) %
7 | recombinant BAG3: E. coli-derived recombinant BAG3 protein; human BAG3 is SEQ ID NO:15 |  |  | expression of inducible nitric oxide synthase (iNOS) and cyclooxygenase (Cox)-2 (J774 A1 macrophages [3]): enhanced; release of nitrite (J774 A1 macrophages [4]): induced the release; release of interleukin (IL)-6 (J774 A1 macrophages [5]): induced the release

Reference: patent US10359433B2, “BAG3 as biochemical serum and tissue marker” (BIOUNIVERSA S.R.L., priority 2012, dated 2019)
